From PubChem BioAssay AID1845198 (Molecular Pharmacology Branch, DTP, NCI, 2023)

Test system: 425362-245-T-J1 tumor spheroids, viability % test/control
Test: Anticancer human tumor 425362-245-T-J1 patient-derived melanoma cell line growth inhibition
Conditions: spheroids with HUVEC and MSC; for IC50: curve of first compound; for viability, T/C: stronger effect = lower value
Outline: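 Complex tumor spheroids combined malignant cells with endothelial cells and mesenchymal stem cells. DNA-damaging drugs and DNA repair inhibitors were tested alone and in combination, at half-log dilutions down from clinical Cmax (top 10 microM if Cmax unknown), 0.25% DMSO final.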

[1] = second compound 1 µM, first compound 0.0316 µM
[2] = second compound 1 µM, first compound 0.1 µM
[3] = second compound 1 µM, first compound 0.316 µM
[4] = second compound 1 µM, first compound 1 µM
[5] = second compound 1 µM, first compound 3.16 µM
[6] = second compound 1 µM, first compound 10 µM
[7] = second compound 3.16 µM, first compound 0.0316 µM
[8] = second compound 3.16 µM, first compound 0.1 µM
[9] = second compound 3.16 µM, first compound 0.316 µM
[10] = second compound 3.16 µM, first compound 1 µM
[11] = second compound 3.16 µM, first compound 3.16 µM
[12] = second compound 3.16 µM, first compound 10 µM
[13] = second compound 10 µM, first compound 0.0316 µM
[14] = second compound 10 µM, first compound 0.1 µM
[15] = second compound 10 µM, first compound 0.316 µM
[16] = second compound 10 µM, first compound 1 µM
[17] = second compound 10 µM, first compound 3.16 µM
[18] = second compound 10 µM, first compound 10 µM
[19] = second compound 31.6 µM, first compound 0.0316 µM
[20] = second compound 31.6 µM, first compound 0.1 µM
[21] = second compound 31.6 µM, first compound 0.316 µM
[22] = second compound 31.6 µM, first compound 1 µM
[23] = second compound 31.6 µM, first compound 3.16 µM
[24] = second compound 31.6 µM, first compound 10 µM
[25] = second compound 100 µM, first compound 0.0316 µM
[26] = second compound 100 µM, first compound 0.1 µM
[27] = second compound 100 µM, first compound 0.316 µM
[28] = second compound 100 µM, first compound 1 µM
[29] = second compound 100 µM, first compound 3.16 µM
[30] = second compound 100 µM, first compound 10 µM
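Further: spheroids exposed to agents for 7 days.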

Row | SMILES | IC50 (second compound 1 µM) | IC50 (second compound 3.16 µM) | IC50 (second compound 10 µM) | IC50 (second compound 31.6 µM) | IC50 (second compound 100 µM) | viability, T/C [1] | viability, T/C [2] | viability, T/C [3] | viability, T/C [4] | viability, T/C [5] | viability, T/C [6] | viability, T/C [7] | viability, T/C [8] | viability, T/C [9] | viability, T/C [10] | viability, T/C [11] | viability, T/C [12] | viability, T/C [13] | viability, T/C [14] | viability, T/C [15] | other results
1 | CC1COCCN1c1cc(-c2ccnn2C)c2ccnc(-c3ccn[nH]3)c2n1 (stereo not given) + Cn1nnc2c(C(N)=O)ncn2c1=O | < 0.0316 µM | < 0.0316 µM | < 0.0316 µM | < 0.0316 µM | < 0.0316 µM | 34% | 9.93% | 9.37% | 7.42% | 8.52% | 7.26% | 46% | 13.1% | 8.7% | 8.72% | 9.76% | 9.55% | 33.1% | 12.4% | 6.43% | viability, T/C [16]: 8.73%; viability, T/C [17]: 8.17%; viability, T/C [18]: 7.97%; viability, T/C [19]: 41.4%; viability, T/C [20]: 10.8%; viability, T/C [21]: 8%; viability, T/C [22]: 8.25%; viability, T/C [23]: 8.57%; viability, T/C [24]: 9.27%; viability, T/C [25]: 16%; viability, T/C [26]: 8.9%; viability, T/C [27]: 6.62%; viability, T/C [28]: 5.43%; viability, T/C [29]: 8.9%; viability, T/C [30]: 6.85%
2 | COc1cc(C)[nH]c(=O)c1CN1CCc2c(Cl)cc(C(OC)C3COC3)c(Cl)c2C1=O (stereo not given) + Cn1nnc2c(C(N)=O)ncn2c1=O | > 10 µM | > 10 µM | > 10 µM | > 10 µM | > 10 µM | 87% | 96.6% | 95.9% | 92.1% | 89.8% | 84.7% | 114% | 103% | 110% | 105% | 101% | 92.4% | 104% | 99.9% | 114% | viability, T/C [16]: 114%; viability, T/C [17]: 95.8%; viability, T/C [18]: 97.6%; viability, T/C [19]: 113%; viability, T/C [20]: 111%; viability, T/C [21]: 100%; viability, T/C [22]: 107%; viability, T/C [23]: 89%; viability, T/C [24]: 93.5%; viability, T/C [25]: 94.4%; viability, T/C [26]: 90.4%; viability, T/C [27]: 90.3%; viability, T/C [28]: 89.7%; viability, T/C [29]: 88.3%; viability, T/C [30]: 71.8%
3 | Cc1cc(C)c(CNC(=O)c2cc(-c3ccc(CN4CCOCC4)cc3)cc3c2cnn3C2CCCC2)c(=O)[nH]1 + Cn1nnc2c(C(N)=O)ncn2c1=O | 2.97 µM | 3.22 µM | 4.59 µM | 3.07 µM | 1.47 µM | 90.2% | 100% | 90.8% | 80.7% | 48.4% | 11.2% | 110% | 107% | 105% | 91.7% | 50.5% | 14.6% | 102% | 106% | 114% | viability, T/C [16]: 85.4%; viability, T/C [17]: 69.6%; viability, T/C [18]: 13.1%; viability, T/C [19]: 104%; viability, T/C [20]: 116%; viability, T/C [21]: 100%; viability, T/C [22]: 85.4%; viability, T/C [23]: 49.3%; viability, T/C [24]: 10.9%; viability, T/C [25]: 94.6%; viability, T/C [26]: 91.4%; viability, T/C [27]: 87.4%; viability, T/C [28]: 59.6%; viability, T/C [29]: 28.6%; viability, T/C [30]: 6.56%
4 | [2H]c1nc(C)nc([2H])c1-c1cc(NC[C@@H](C)c2cccc3c(C(=O)NC)ccnc23)ncn1 + Cn1nnc2c(C(N)=O)ncn2c1=O | > 10 µM | > 10 µM | > 10 µM | > 10 µM | > 10 µM | 88.2% | 96.8% | 95.9% | 71.2% | 93.4% | 76.9% | 108% | 91.8% | 102% | 105% | 109% | 94.4% | 99.2% | 114% | 110% | viability, T/C [16]: 107%; viability, T/C [17]: 112%; viability, T/C [18]: 84.2%; viability, T/C [19]: 105%; viability, T/C [20]: 113%; viability, T/C [21]: 104%; viability, T/C [22]: 110%; viability, T/C [23]: 101%; viability, T/C [24]: 85.5%; viability, T/C [25]: 82.7%; viability, T/C [26]: 91.3%; viability, T/C [27]: 87.4%; viability, T/C [28]: 86.5%; viability, T/C [29]: 88.2%; viability, T/C [30]: 83.5%
